Measurements from ChEMBL document CHEMBL1201862, “PubChem BioAssay data set” (2004).
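Where inhibition never reached the appropriate level, the endpoint shown equals the highest concentration tested. Otherwise, values were interpolated linearly from a five-concentration, 48-hour dose response in 96-well plates. GI50 = concentration required for 50% inhibition of growth.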 The source made the active and inactive calls. No stated cut-off is given here; in the data, active = GI50 up to about 1.1 µM and inactive = higher.

Key:
Test in all cases: growth of human tumour cells (NCI), 48 h
786-0 = tested on: 786-0
A498 = tested on: A498
ACHN = tested on: ACHN
BT-549 = tested on: BT-549
CAKI-1 = tested on: CAKI-1
CCRF-CEM = tested on: CCRF-CEM
COLO 205 = tested on: COLO 205
DMS-114 = tested on: DMS-114
DMS-273 = tested on: DMS-273
DU-145 = tested on: DU-145
EKVX = tested on: EKVX
HCC 2998 = tested on: HCC 2998
HCT-116 = tested on: HCT-116
HCT-15 = tested on: HCT-15
HL-60 = tested on: HL-60
HOP-18 = tested on: HOP-18
HOP-62 = tested on: HOP-62
HOP-92 = tested on: HOP-92
HT-29 = tested on: HT-29
Hs-578T = tested on: Hs-578T
IGROV-1 = tested on: IGROV-1
K562 = tested on: K562
KM-20L2 = tested on: KM-20L2
KM12 = tested on: KM12
LOX IMVI = tested on: LOX IMVI
M14 = tested on: M14
M19-MEL = tested on: M19-MEL
MCF7 = tested on: MCF7
MDA-MB-231 = tested on: MDA-MB-231
MDA-MB-435 = tested on: MDA-MB-435
MDA-N = tested on: MDA-N
MOLT-4 = tested on: MOLT-4
NCI-H226 = tested on: NCI-H226
NCI-H23 = tested on: NCI-H23
NCI-H460 = tested on: NCI-H460
NCI-H522 = tested on: NCI-H522
NCI/ADR-RES = tested on: NCI/ADR-RES
OVCAR-3 = tested on: OVCAR-3
OVCAR-4 = tested on: OVCAR-4
OVCAR-5 = tested on: OVCAR-5
OVCAR-8 = tested on: OVCAR-8
PC-3 = tested on: PC-3
RPMI-8226 = tested on: RPMI-8226
SF-268 = tested on: SF-268
SF-295 = tested on: SF-295
SF-539 = tested on: SF-539
SK-MEL-28 = tested on: SK-MEL-28
SK-MEL-2 = tested on: SK-MEL-2
SK-MEL-5 = tested on: SK-MEL-5
SK-OV-3 = tested on: SK-OV-3
SN12C = tested on: SN12C
SNB-19 = tested on: SNB-19
SNB-75 = tested on: SNB-75
SNB-78 = tested on: SNB-78
SR = tested on: SR
SW-620 = tested on: SW-620
T47D = tested on: T47D
TK-10 = tested on: TK-10
U-251 = tested on: U-251
UACC-257 = tested on: UACC-257
UACC-62 = tested on: UACC-62
UO-31 = tested on: UO-31
XF498 = tested on: XF498
A549 = tested on: A549
LXFL 529 = tested on: LXFL 529
Malme-3M = tested on: Malme-3M
RXF 393 = tested on: RXF 393

Measured: GI50

C[C@@H]1O[C@@H](O[C@H]2CC[C@]3(C=O)[C@H]4CC[C@]5(C)[C@@H](c6ccc(=O)oc6)CC[C@]5(O)[C@@H]4CC[C@]3(O)C2)[C@H](O)[C@H](O)[C@H]1O[C@@H]1O[C@H](CO)[C@@H](O)[C@H](O)[C@H]1O [HELLEBRIN]
0.0375 µM: HCT-15
active: 786-0 0.00451 µM | A498 0.0284 µM | ACHN 0.00423 µM | BT-549 0.00509 µM | CAKI-1 0.0121 µM | CCRF-CEM 0.00445 µM | COLO 205 0.0271 µM | DMS-114 0.00208 µM | DMS-273 0.00775 µM | DU-145 0.00265 µM | EKVX 0.0075 µM | HCC 2998 0.0365 µM | HCT-116 0.00805 µM | HL-60 0.00615 µM | HOP-18 0.00518 µM | HOP-62 0.0375 µM | HOP-92 0.0402 µM | HT-29 0.0212 µM | Hs-578T 0.00653 µM | IGROV-1 0.0183 µM | K562 0.0218 µM | KM-20L2 0.0187 µM | KM12 0.0521 µM | LOX IMVI 0.0166 µM | M14 0.021 µM | M19-MEL 0.0375 µM | MCF7 0.0375 µM | MDA-MB-231 0.0379 µM | MDA-MB-435 0.0107 µM | MDA-N 0.0223 µM | MOLT-4 0.00302 µM | NCI-H226 0.0231 µM | NCI-H23 0.00314 µM | NCI-H460 0.00771 µM | NCI-H522 0.00324 µM | NCI/ADR-RES 0.0152 µM | OVCAR-3 0.00408 µM | OVCAR-4 0.00743 µM | OVCAR-5 0.00989 µM | OVCAR-8 0.0126 µM | PC-3 0.00938 µM | RPMI-8226 0.0375 µM | SF-268 0.0375 µM | SF-295 0.0112 µM | SF-539 0.00811 µM | SK-MEL-28 0.0375 µM | SK-MEL-2 0.0199 µM | SK-MEL-5 0.00841 µM | SK-OV-3 0.0226 µM | SN12C 0.00506 µM | SNB-19 0.0451 µM | SNB-75 0.0198 µM | SNB-78 0.0375 µM | SR 0.00601 µM | SW-620 0.0375 µM | T47D 0.0166 µM | TK-10 0.00347 µM | U-251 0.0223 µM | UACC-257 0.0243 µM | UACC-62 0.027 µM | UO-31 0.0186 µM | XF498 0.0375 µM

O=C(c1nc2ccccc2nc1O)C(O)c1ccco1 (stereo unspecified)
inactive: 786-0 > 100 µM | A549 > 100 µM | ACHN 54.5 µM | CCRF-CEM > 100 µM | COLO 205 > 100 µM | DMS-114 52.6 µM | DMS-273 > 100 µM | EKVX > 100 µM | HCC 2998 > 100 µM | HCT-116 > 100 µM | HL-60 > 100 µM | HOP-62 > 100 µM | HOP-92 > 100 µM | HT-29 > 100 µM | IGROV-1 > 100 µM | K562 > 100 µM | KM-20L2 56.5 µM | KM12 76.4 µM | LOX IMVI > 100 µM | LXFL 529 86.3 µM | M14 > 100 µM | M19-MEL > 100 µM | MOLT-4 > 100 µM | Malme-3M > 100 µM | NCI-H226 > 100 µM | NCI-H23 > 100 µM | NCI-H460 > 100 µM | NCI-H522 25.9 µM | OVCAR-3 > 100 µM | OVCAR-4 > 100 µM | OVCAR-5 > 100 µM | OVCAR-8 > 100 µM | RPMI-8226 > 100 µM | RXF 393 > 100 µM | SF-268 > 100 µM | SF-295 > 100 µM | SF-539 > 100 µM | SK-MEL-28 > 100 µM | SK-MEL-2 > 100 µM | SK-MEL-5 64.1 µM | SK-OV-3 > 100 µM | SN12C > 100 µM | SNB-19 > 100 µM | SNB-75 45.8 µM | SNB-78 > 100 µM | SW-620 > 100 µM | TK-10 > 100 µM | U-251 > 100 µM | UACC-257 > 100 µM | UACC-62 61.5 µM | UO-31 72.3 µM | XF498 > 100 µM
51.8 µM: HCT-15
